Where “and” joins values, the source holds several entries; their conditions need not be identical. Identical values can stand only once. Counter-ions that a name gives are not always drawn.
Key:
[1] = 250 mg every six hours over a twenty-four hour period; cited from earlier work
C-reactive protein (CRP) = experiment: Prospective randomized six-month study of low-dose doxycycline versus placebo: C-reactive protein levels in patients after acute coronary syndrome; format: in vivo, human; conditions: for 6-Month CRP level: after six months of therapy, P<0.05 vs baseline; for 6-Month CRP level / Baseline CRP level: mean ± S.E.M.; for Reduction Due To Treatment (CRP): six months vs baseline; for Baseline CRP level / Baseline CRP: study entry; for Six Month CRP: six months
Method: A prospective, randomized study was conducted over six (6) months to investigate the effectiveness of low-dose doxycycline (LDD) versus placebo, in the prevention of subsequent plaque rupture events in patients enrolled after an initial acute coronary syndrome.
Biochemical markers of inflammation were assessed at study entry and after six (6) months of therapy in a subset of patients. A total of thirty (30) patients completed the study of whom thirteen (13) were randomized to placebo and seventeen (17) to LDD. There were no significant differences in age, male gender, hypertension, diabetes, smoking, previous cardiac history, extent of coronary disease, presentation with acute myocardial infarction or unstable angina, or percutaneous coronary intervention between LDD and placebo treated patients.
At six months clinical follow-up, there was no difference in the composite endpoint of cardiovascular death, myocardial infarction or troponin-positive unstable angina in LDD compared to placebo treated patients. […] In placebo-treated patients, CRP was 5.2 μg/ml at study entry and 4.9 μg/ml at six months (P=not significant (n.s.)).
Patients with higher baseline CRP levels were reduced by 58% from 7.2 μg/ml to 3.0 μg/ml (P<0.001). In placebo-treated patients with higher baseline CRP, CRP levels were decreased by 23% (7.1 μg/ml to 5.5 μg/ml).

[2] = single dose of two 100 mg tablets, adult human; cited from earlier work
[3] = CMT-3 serum levels in humans; format: in vivo, human; conditions: dose of about 10 to about 20 mg/day
Method: Non-antibacterial tetracycline compounds can be used in higher amounts than antibacterial tetracyclines, while avoiding the indiscriminate killing of bacteria, and the emergence of resistant bacteria. For example, 6-demethyl-6-deoxy-4-dedimethylaminotetracycline (CMT-3) may be administered in doses of about 10 to about 200 mg/day, or in amounts that result in serum levels in humans of about 1.0 μg/ml to about 10 μg/ml. For example, a dose of about 10 to about 20 mg/day produces serum levels in humans of about 1.0 μg/ml.

[4] = all LDD patients (n = 17), listed as Low-Dose Doxycycline
[5] = patients with higher CRP (>5 μg/ml)
[6] = patients with lower baseline CRP (≦5 μg/ml)

For `CN(C)[C@@H]1C(O)=C(C(N)=O)C(=O)[C@@]2(O)C(O)=C3C(=O)c4c(O)cccc4[C@@](C)(O)[C@H]3C[C@@H]12` [tetracycline HCl], the peak plasma concentration [1] is given as “approximately 3 μg/ml”.

For `C[C@H]1c2cccc(O)c2C(=O)C2=C(O)[C@]3(O)C(=O)C(C(N)=O)=C(O)[C@@H](N(C)C)[C@@H]3[C@@H](O)[C@@H]21` [LDD, doxycycline], the “6-Month CRP level” value (C-reactive protein (CRP); all LDD patients (n = 17)) was 2.6 µg/mL, the 6-Month CRP level (C-reactive protein (CRP); [4]) was 2.6 ± 0.4 µg/mL and the “Reduction Due To Treatment (CRP)” value (C-reactive protein (CRP); all LDD patients (n = 17)) was 46%. The “Reduction Due To Treatment (CRP)” value (C-reactive protein (CRP); [4]) was 45%, the “Baseline CRP level” value (C-reactive protein (CRP); all LDD patients (n = 17)) was 4.8 µg/mL and the Baseline CRP level (C-reactive protein (CRP); [4]) was 4.8 ± 0.6 µg/mL. The “Reduction Due To Treatment (CRP)” value (C-reactive protein (CRP); [5]) was 58%, the “Six Month CRP” value (C-reactive protein (CRP); patients with higher CRP (>5 μg/ml), P<0.001 vs baseline) was 3.0 μg/ml and 3.0 ± 0.7^a μg/ml and the “Baseline CRP” value (C-reactive protein (CRP); [5]) was 7.2 µg/mL and 7.2 ± 0.6 µg/mL. The “Reduction Due To Treatment (CRP)” value (C-reactive protein (CRP); [6]) was 23%, the “Six Month CRP” value (C-reactive protein (CRP); patients with lower baseline CRP (≦5 μg/ml), n.s. vs baseline) was 2.3 μg/ml and 2.3 ± 0.5^b μg/ml and the “Baseline CRP” value (C-reactive protein (CRP); [6]) was 3.0 µg/mL and 3.0 ± 0.4 µg/mL.

For `CN(C)c1ccc(O)c2c1C[C@H]1C[C@H]3[C@H](N(C)C)C(O)=C(C(N)=O)C(=O)[C@@]3(O)C(O)=C1C2=O` [minocycline HCl], the “minocycline serum level, average” value [2] is listed as 2.24 µg/mL.

In the case of `NC(=O)C1=C(O)CC2CC3Cc4cccc(O)c4C(=O)C3=C(O)C2(O)C1=O` (stereo not drawn) [CMT-3, 4-dedimethylaminosancycline], the “serum levels in humans” value [3] is reported as “about 1.0 μg/ml”.
